Activity calls are given as the source filed them. How the calls were made is not given here.
System: CCRIS mutagenicity, Ames/micronucleus/aberration tests
Test: CCRIS mutagenicity studies
[1] = Test System: AMES SALMONELLA TYPHIMURIUM, Strain/Indicator: TA1535, Metabolic Activation: NONE, Method: STANDARD PLATE
[2] = Test System: AMES SALMONELLA TYPHIMURIUM, Strain/Indicator: TA98, Metabolic Activation: NONE, Method: STANDARD PLATE
[3] = Test System: AMES SALMONELLA TYPHIMURIUM, Strain/Indicator: TA98, Metabolic Activation: RAT, LIVER, S-9, AROCLOR 1254, Method: STANDARD PLATE
[4] = Test System: AMES SALMONELLA TYPHIMURIUM, Strain/Indicator: TA100, Metabolic Activation: NONE, Method: STANDARD PLATE
[5] = Test System: AMES SALMONELLA TYPHIMURIUM, Strain/Indicator: TA100, Metabolic Activation: RAT, LIVER, S-9, AROCLOR 1254, Method: STANDARD PLATE
[6] = Test System: AMES SALMONELLA TYPHIMURIUM, Strain/Indicator: TA100, Metabolic Activation: RAT LIVER S-9, PHENOBARBITAL AND 5,6-BENZOFLAVONE, Method: PREINCUBATION
[7] = Test System: AMES SALMONELLA TYPHIMURIUM, Strain/Indicator: TA98, Metabolic Activation: NONE, Method: PREINCUBATION
[8] = Test System: AMES SALMONELLA TYPHIMURIUM, Strain/Indicator: TA1537, Metabolic Activation: NONE, Method: STANDARD PLATE

Measured: mutagenic call

O=C1NC2(CCCCC2)C(=O)N1CCN1CC1
active: [1] active; positive

O=c1ccc2cc3ccoc3cc2o1
inactive: [2] inactive; negative | [3] inactive; negative | Test System: AMES SALMONELLA TYPHIMURIUM, Strain/Indicator: TA98, Metabolic Activation: RAT, LIVER, S-9, PHENOBARBITAL, Method: STANDARD PLATE inactive; negative | [4] inactive; negative | [5] inactive; negative

[U]
active: End Point: In vitro chromosomal aberrations, Test System: Human colon tumor line LT97, Metabolic Activation: None, Method: 24 color FISH active; positive (breaks at tumor-relevant chromosomes 5, 12, and 17); uranium and nitri

O=C(O)[C@H](O)[C@@H](O)[C@H](O)[C@H](O)CO
inactive: Test System: AMES SALMONELLA TYPHIMURIUM, Strain/Indicator: TA97, Metabolic Activation: NONE, Method: PREINCUBATION inactive; negative | Test System: AMES SALMONELLA TYPHIMURIUM, Strain/Indicator: TA97, Metabolic Activation: RAT, LIVER, S-9, AROCLOR 1254, Method: PREINCUBATION inactive; negative | Test System: AMES SALMONELLA TYPHIMURIUM, Strain/Indicator: TA102, Metabolic Activation: NONE, Method: PREINCUBATION inactive; negative | Test System: AMES SALMONELLA TYPHIMURIUM, Strain/Indicator: TA102, Metabolic Activation: RAT, LIVER, S-9, AROCLOR 1254, Method: PREINCUBATION inactive; negative

Cc1cnc2c(cc(C)c3c2nc(N)n3C)n1
active: [3] active; positive

C=CC[C@]1(O)CC[C@H]2[C@@H]3CCC4=CCCC[C@@H]4[C@H]3CC[C@@]21C
inactive: End Point: IN VIVO MICRONUCLEUS, Test System: HEPATOCYTES, Species: RAT, Strain/Sex: SPRAGUE-DAWLEY/FEMALE, Route: INTRAGASTRIC (GAVAGE) inactive; negative (increase not significant)

Fc1cc(F)c2cccnc2c1
active: [6] active; positive

CN(C)c1ccc(N=Nc2ccccc2C(=O)O)cc1
inactive: Test System: AMES SALMONELLA TYPHIMURIUM, Strain/Indicator: TA100, Metabolic Activation: RAT, LIVER, S-9, POLYCHLORINATED BIPHENYLS, Method: PREINCUBATION inactive; negative
active: Test System: AMES SALMONELLA TYPHIMURIUM, Strain/Indicator: TA98, Metabolic Activation: RAT, LIVER, S-9, POLYCHLORINATED BIPHENYLS, Method: PREINCUBATION active; positive

C[C@H](CCC(=O)O)[C@H]1CC[C@H]2[C@@H]3CCc4cc(O)ccc4[C@H]3CC[C@]12C
inactive: [7] inactive; negative | Test System: AMES SALMONELLA TYPHIMURIUM, Strain/Indicator: TA98, Method: PREINCUBATION inactive; negative | Test System: AMES SALMONELLA TYPHIMURIUM, Strain/Indicator: TA100, Method: PREINCUBATION inactive; negative

Fc1ccc2cccnc2c1
active: [6] active; positive | Test System: AMES SALMONELLA TYPHIMURIUM, Strain/Indicator: TA100, Metabolic Activation: RAT, LIVER, S-9, AROCLOR 1254, Method: PREINCUBATION active; positive | Test System: UDS RODENT HEPATOCYTES, Strain/Indicator: THY INCORP (NON-S-PHASE), Metabolic Activation: NONE, Method: AUTORADIOGRAPHY active; positive

CN(C)CCC=C1c2ccccc2CCc2ccccc21
inactive: [2] inactive; negative | [3] inactive; negative | [4] inactive; negative | [5] inactive; negative | [1] inactive; negative | Test System: AMES SALMONELLA TYPHIMURIUM, Strain/Indicator: TA1535, Metabolic Activation: RAT, LIVER, S-9, AROCLOR 1254, Method: STANDARD PLATE inactive; negative | [8] inactive; negative | Test System: AMES SALMONELLA TYPHIMURIUM, Strain/Indicator: TA1537, Metabolic Activation: RAT, LIVER, S-9, AROCLOR 1254, Method: STANDARD PLATE inactive; negative

Clc1cccc(Cl)c1NC1=NCCN1
inactive: [7] inactive; negative | Test System: AMES SALMONELLA TYPHIMURIUM, Strain/Indicator: TA98, Metabolic Activation: S-9, Method: PREINCUBATION inactive; negative | Test System: AMES SALMONELLA TYPHIMURIUM, Strain/Indicator: TA100, Metabolic Activation: NONE, Method: PREINCUBATION inactive; negative | Test System: AMES SALMONELLA TYPHIMURIUM, Strain/Indicator: TA100, Metabolic Activation: S-9, Method: PREINCUBATION inactive; negative | Test System: AMES SALMONELLA TYPHIMURIUM, Strain/Indicator: TA1535, Metabolic Activation: NONE, Method: PREINCUBATION inactive; negative | Test System: AMES SALMONELLA TYPHIMURIUM, Strain/Indicator: TA1535, Metabolic Activation: S-9, Method: PREINCUBATION inactive; negative | Test System: AMES SALMONELLA TYPHIMURIUM, Strain/Indicator: TA1537, Metabolic Activation: NONE, Method: PREINCUBATION inactive; negative | Test System: AMES SALMONELLA TYPHIMURIUM, Strain/Indicator: TA1537, Metabolic Activation: S-9, Method: PREINCUBATION inactive; negative | Test System: E. COLI, Strain/Indicator: WP2 UVRA, Metabolic Activation: NONE, Method: PREINCUBATION inactive; negative | Test System: E. COLI, Strain/Indicator: WP2 UVRA, Metabolic Activation: S-9, Method: PREINCUBATION inactive; negative | Test System: UDS RAT HEPATOCYTES, Strain/Indicator: THY INCORP, Metabolic Activation: NONE, Method: IN VIVO-IN VITRO inactive; negative

Cc1c2ccc(CO)cc2nc2c1ccc1ccccc12
active: [5] active; positive

NNc1ccc(C(=O)O)cc1
inactive: Test System: AMES SALMONELLA TYPHIMURIUM, Strain/Indicator: TA104, Metabolic Activation: MUSHROOM TYROSINASE, Method: PREINCUBATION inactive; negative | Test System: AMES SALMONELLA TYPHIMURIUM, Strain/Indicator: TA104, Metabolic Activation: NONE, Method: PREINCUBATION inactive; negative | Test System: AMES SALMONELLA TYPHIMURIUM, Strain/Indicator: TA104, Metabolic Activation: RAT, LIVER, CYTOSOL, AROCLOR 1254, NADPH, Method: PREINCUBATION inactive; negative

C[C@]12CCC(=O)C=C1C=C[C@@H]1[C@@H]2CC[C@@]2(C)[C@H]1CC[C@@]2(O)CCC(=O)O
inactive: End Point: IN VITRO MICRONUCLEUS, Test System: HUMAN PERIPHERAL LYMPHOCYTES, Metabolic Activation: NONE inactive; negative | End Point: IN VITRO MICRONUCLEUS, Test System: HUMAN PRIMARY HEPATOCYTES (FEMALE), Metabolic Activation: NONE inactive; negative
active: End Point: IN VITRO MICRONUCLEUS, Test System: RAT PRIMARY HEPATOCYTES (MALE/FEMALE), Metabolic Activation: NONE active; positive

C/C=C1/C[C@@H](C)[C@@](C)(O)C(=O)OCC2=CCN3CC[C@@H](OC1=O)[C@@H]23
active: Test System: UDS RAT HEPATOCYTES, Strain/Indicator: THY INCORP, Metabolic Activation: NONE, Method: AUTORADIOGRAPHY active; positive
inactive: Test System: AMES SALMONELLA TYPHIMURIUM, Strain/Indicator: TA100, Metabolic Activation: HAMSTER, LIVER, S-9, PCB, Method: PREINCUBATION inactive; negative | Test System: AMES SALMONELLA TYPHIMURIUM, Strain/Indicator: TA100, Metabolic Activation: RAT, LIVER, S-9, PCB, Method: PREINCUBATION inactive; negative | Test System: AMES SALMONELLA TYPHIMURIUM, Strain/Indicator: TA100, Metabolic Activation: RAT, LIVER, S-9, SODIUM PHENOBARBITAL AND BETA-NAPHTHOFLAVONE, Method: PREINCUBATION inactive; negative

CC(C)(C)CBr
inactive: Test System: AMES SALMONELLA TYPHIMURIUM, Strain/Indicator: TA97, Metabolic Activation: NONE, Method: STANDARD PLATE inactive; negative | [2] inactive; negative | Test System: AMES SALMONELLA TYPHIMURIUM, Strain/Indicator: TA98, Metabolic Activation: RAT, LIVER, S-9, AROCLOR, Method: STANDARD PLATE inactive; negative | [4] inactive; negative | Test System: AMES SALMONELLA TYPHIMURIUM, Strain/Indicator: TA100, Metabolic Activation: RAT, LIVER, S-9, AROCLOR, Method: STANDARD PLATE inactive; negative | [1] inactive; negative | [8] inactive; negative | Test System: AMES SALMONELLA TYPHIMURIUM, Strain/Indicator: TA1538, Metabolic Activation: NONE, Method: STANDARD PLATE inactive; negative | Test System: AMES SALMONELLA TYPHIMURIUM, Strain/Indicator: TA2637, Metabolic Activation: NONE, Method: STANDARD PLATE inactive; negative

From PubChem BioAssay AID1259407 (Chemical Carcinogenesis Research Information System (CCRIS), 2018)
